Measurements reported in ChEMBL document CHEMBL3596183, “Cytoprotective effects of hydrogen sulfide-releasing N-methyl-D-aspartate receptor antagonists are mediated by intracellular sulfane sulfur” (Medchemcomm, 2014).
Activity calls are given as the source filed them. The calls are words filed in the database; no cut-off is given here.

Assays:
[1] = test system: SH-SY5Y; assay: Increase in H2S level in human SH-SY5Y cells at 20 uM after 3 hrs by HSip-1 probe-based fluorescence assay; type: functional, cell-based
[2] = target: Transient receptor potential cation channel subfamily A member 1 (Rattus norvegicus, UniProt Q6RI86); assay: Activation of TRPA1 in rat astrocytes assessed as induction of Ca2+ influx by calcium green-1/acetoxymethyl ester-based fluorescence assay; type: cell-based
Transient receptor potential cation channel subfamily A member 1, sequence (Q6RI86 whole entry): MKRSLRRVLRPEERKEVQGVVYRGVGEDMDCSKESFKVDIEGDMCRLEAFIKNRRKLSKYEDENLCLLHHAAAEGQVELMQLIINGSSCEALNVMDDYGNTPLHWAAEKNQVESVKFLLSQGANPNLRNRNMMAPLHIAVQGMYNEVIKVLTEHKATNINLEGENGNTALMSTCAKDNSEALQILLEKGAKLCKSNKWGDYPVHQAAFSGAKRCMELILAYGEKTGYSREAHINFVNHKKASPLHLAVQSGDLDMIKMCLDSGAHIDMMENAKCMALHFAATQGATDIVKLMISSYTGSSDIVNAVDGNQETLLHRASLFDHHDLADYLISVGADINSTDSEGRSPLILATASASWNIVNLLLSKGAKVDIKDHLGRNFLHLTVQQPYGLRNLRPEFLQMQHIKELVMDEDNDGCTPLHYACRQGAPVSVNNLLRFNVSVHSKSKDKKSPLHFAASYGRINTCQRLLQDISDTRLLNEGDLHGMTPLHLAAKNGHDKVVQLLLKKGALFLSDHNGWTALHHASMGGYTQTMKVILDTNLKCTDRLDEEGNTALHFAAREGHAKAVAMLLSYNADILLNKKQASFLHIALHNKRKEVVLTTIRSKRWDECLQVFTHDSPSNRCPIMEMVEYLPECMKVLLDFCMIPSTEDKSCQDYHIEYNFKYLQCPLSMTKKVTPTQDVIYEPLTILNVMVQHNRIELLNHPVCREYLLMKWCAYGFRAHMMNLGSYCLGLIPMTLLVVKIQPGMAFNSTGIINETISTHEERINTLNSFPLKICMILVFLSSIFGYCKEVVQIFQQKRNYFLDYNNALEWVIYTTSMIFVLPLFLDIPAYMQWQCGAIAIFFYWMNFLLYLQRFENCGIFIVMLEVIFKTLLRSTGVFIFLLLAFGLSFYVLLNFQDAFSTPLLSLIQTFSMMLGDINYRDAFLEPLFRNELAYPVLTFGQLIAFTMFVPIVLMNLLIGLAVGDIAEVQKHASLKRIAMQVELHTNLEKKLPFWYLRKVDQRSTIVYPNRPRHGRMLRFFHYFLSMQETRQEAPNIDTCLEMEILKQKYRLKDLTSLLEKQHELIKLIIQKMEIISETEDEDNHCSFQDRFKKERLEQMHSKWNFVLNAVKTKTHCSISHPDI

| SMILES | Activity [1] | EC50 [2] |
| --- | --- | --- |
| O=C(NC12CC3CC(CC(C3)C1)C2)c1ccc(-c2cssc2=S)cc1 | Active |  |
| CC12CC3CC(C)(C1)CC(NC(=O)c1ccc(-c4cssc4=S)cc1)(C3)C2 | Active |  |
| SSS |  | 0.091 µM |
| S1SSSSSSS1 [SULFUR] |  | 116 µM |
